Where a name gives a salt, the structure may show the parent alone.
Experiments:
Format in all cases: biochemical
[1] = biological target: human JAK1 catalytic kinase (JH1) domain (Homo sapiens (Human), UniProt P23458); test: ADP-Glo Kinase Assay, recombinant JAK1 catalytic kinase (JH1) domain; conditions: recombinant JH1 domain 4 nM, 35 μM ATP, JAK3-342 peptide, mean, read-out: JAK1 biochem IC50 (nM) Mean
In short: (§1)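 Compounds were titrated in 11 points of 3-fold dilution starting at 10 μM or 1 μM. Enzyme (JAK1 4 nM, JAK2 0.2 nM, JAK3 0.3 nM, TYK2 2 nM) and 50 μM peptide reacted for 100 minutes, followed by ADP-to-luminescence detection; IC50 by 4-parameter fit.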

[2] = biological target: human JAK3 catalytic kinase (JH1) domain (Homo sapiens (Human), UniProt P52333); test: ADP-Glo Kinase Assay, recombinant JAK3 catalytic kinase (JH1) domain; conditions: recombinant JH1 domain 0.3 nM, 4 μM ATP, JAK3-974 peptide, mean, read-out: JAK3 biochem IC50 (nM) Mean
In short: as §1

[3] = biological target: human JAK2 catalytic kinase (JH1) domain (Homo sapiens (Human), UniProt O60674); test: ADP-Glo Kinase Assay, recombinant JAK2 catalytic kinase (JH1) domain; conditions: recombinant JH1 domain 0.2 nM, 15 μM ATP, JAK3-974 peptide, mean, read-out: JAK2 biochem IC50 (nM) Mean
In short: as §1

[4] = biological target: human TYK2 catalytic kinase (JH1) domain (Homo sapiens (Human), UniProt P29597); test: ADP-Glo Kinase Assay, recombinant TYK2 catalytic kinase (JH1) domain; conditions: recombinant JH1 domain 2 nM, 10 μM ATP, JAK3-974 peptide, mean, read-out: TYK2 biochem IC50 (nM) Mean
In short: as §1

Chain of human JAK3 catalytic kinase (JH1) domain (P52333 822-1111): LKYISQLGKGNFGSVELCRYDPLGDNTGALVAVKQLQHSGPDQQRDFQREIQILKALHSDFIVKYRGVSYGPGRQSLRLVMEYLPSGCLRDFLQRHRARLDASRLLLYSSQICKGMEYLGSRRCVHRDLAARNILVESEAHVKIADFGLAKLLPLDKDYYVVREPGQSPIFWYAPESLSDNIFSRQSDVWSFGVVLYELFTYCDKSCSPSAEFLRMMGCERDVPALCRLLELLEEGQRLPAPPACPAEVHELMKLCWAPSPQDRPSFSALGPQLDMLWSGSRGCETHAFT
Chain of human JAK2 catalytic kinase (JH1) domain (O60674 849-1124): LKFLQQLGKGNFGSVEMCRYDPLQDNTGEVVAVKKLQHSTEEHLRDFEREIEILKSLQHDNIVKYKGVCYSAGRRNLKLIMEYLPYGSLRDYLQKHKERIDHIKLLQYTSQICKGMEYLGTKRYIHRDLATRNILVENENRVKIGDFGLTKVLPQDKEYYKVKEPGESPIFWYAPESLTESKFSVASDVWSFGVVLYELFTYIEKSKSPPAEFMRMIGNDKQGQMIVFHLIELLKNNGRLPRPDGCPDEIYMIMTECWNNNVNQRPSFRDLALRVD
Chain of human TYK2 catalytic kinase (JH1) domain (P29597 897-1176): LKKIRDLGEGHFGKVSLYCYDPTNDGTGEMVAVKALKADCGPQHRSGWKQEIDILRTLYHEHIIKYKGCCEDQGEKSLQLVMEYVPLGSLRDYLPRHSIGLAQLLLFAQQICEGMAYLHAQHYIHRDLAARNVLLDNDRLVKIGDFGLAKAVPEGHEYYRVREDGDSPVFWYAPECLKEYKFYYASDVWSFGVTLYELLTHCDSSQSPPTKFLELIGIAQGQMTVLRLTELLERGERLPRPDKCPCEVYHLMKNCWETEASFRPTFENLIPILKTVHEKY
Chain of human JAK1 catalytic kinase (JH1) domain (P23458 875-1153): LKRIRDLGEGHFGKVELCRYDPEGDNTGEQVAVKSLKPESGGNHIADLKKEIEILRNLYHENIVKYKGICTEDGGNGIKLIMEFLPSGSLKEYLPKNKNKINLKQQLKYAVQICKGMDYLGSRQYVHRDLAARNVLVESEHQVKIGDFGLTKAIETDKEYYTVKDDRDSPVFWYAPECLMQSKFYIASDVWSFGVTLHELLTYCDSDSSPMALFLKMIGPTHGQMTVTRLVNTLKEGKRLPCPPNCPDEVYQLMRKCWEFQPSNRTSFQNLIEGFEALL

Structure (SMILES)	IC50 [1]	IC50 [2]	IC50 [3]	IC50 [4]
CNc1cc(-c2cc3c(N4CC5CCC(C4)N5C(=O)[C@@H]4C[C@H]4F)ccnn3c2)ccn1 [Example 99, ((1S,2R)-2-fluorocyclopropyl)(3-(6-(2-(methylamino)pyridin-4-yl)pyrrolo[1,2-b]pyridazin-4-yl)-3,8-diazabicyclo[3.2.1]octan-8-yl)methanone]	10 nM	211 nM	18 nM	0.7 nM
Cn1ncc(-c2cc3c(N4CC5CCC(C4)N5C(=O)[C@@H]4C[C@H]4F)ccnn3c2)c1F [Example 121, (3-(6-(5-fluoro-1-methyl-1H-pyrazol-4-yl)pyrrolo[1,2-b]pyridazin-4-yl)-3,8-diazabicyclo[3.2.1]octan-8-yl)((1S,2R)-2-fluorocyclopropyl)methanone]	117 nM	606 nM	113 nM	4.7 nM
Cn1cc(-c2cc3c(N4CC5CCC(C4)N5C(=O)[C@@H]4C[C@H]4F)ncnn3c2)cc(F)c1=O [Example 167]	2210 nM	10000 nM	1740 nM	95 nM
Cn1cc(-c2cc3c(N4CC5CCC(C4)N5S(=O)(=O)C4CC4)ccnc3[nH]2)cn1 [Example 193]	200 nM	199 nM	36 nM	10.1 nM
O=C([C@@H]1C[C@H]1F)N1C2CCC1CN(c1ncnc3[nH]c(-c4cnn(C(F)F)c4)cc13)C2 [Example 221, (3-(6-(1-(difluoromethyl)-1H-pyrazol-4-yl)-7H-pyrrolo[2,3-d]pyrimidin-4-yl)-3,8-diazabicyclo[3.2.1]octan-8-yl)((1S,2R)-2-fluorocyclopropyl)methanone]	82 nM	461 nM	73 nM	2.8 nM
O=C(C1CC1)N1C2CCC1CN(c1ccnn3cc(-c4cnn(C(F)F)c4)cc13)C2 [Example 16, cyclopropyl(3-(6-(1-(difluoromethyl)-1H-pyrazol-4-yl)pyrrolo[1,2-b]pyridazin-4-yl)-3,8-diazabicyclo[3.2.1]octan-8-yl)methanone]	264 nM	1040 nM	257 nM	13.8 nM
O=C(C1CC(F)C1)N1C2CCC1CN(c1ncnn3cc(-c4cnn(C(F)F)c4)cc13)C2 (centres unmarked) [Example 48, (3-(6-(1-(difluoromethyl)-1H-pyrazol-4-yl)pyrrolo[2,1-f][1,2,4]triazin-4-yl)-3,8-diazabicyclo[3.2.1]octan-8-yl)(3-fluorocyclobutyl)methanone]	3780 nM	9430 nM	8770 nM	483 nM
O=C(C1CC1)N1C2CCC1CN(c1ncnn3cc(-c4cnn(C5CCC5)c4)cc13)C2 [Example 149]	942 nM	3010 nM	3130 nM	141 nM
O=C(C1CC(O)(C(F)(F)F)C1)N1C2CCC1CN(c1ncnn3cc(-c4cnn(C(F)F)c4)cc13)C2 (centres unmarked) [Example 36, (3-(6-(1-(difluoromethyl)-1H-pyrazol-4-yl)pyrrolo[2,1-f][1,2,4]triazin-4-yl)-3,8-diazabicyclo[3.2.1]octan-8-yl)(3-hydroxy-3-(trifluoromethyl)cyclobutyl)methanone trifluoroacetate]	2200 nM	5840 nM	7490 nM	968 nM
Cn1cc(-c2cc3c(N4CC5CCC(C4)N5C(=O)[C@@H]4CC4(F)F)ncnn3c2)cn1 [Example 83, ((S)-2,2-difluorocyclopropyl)(3-(6-(1-methyl-1H-pyrazol-4-yl)pyrrolo[2,1-f][1,2,4]triazin-4-yl)-3,8-diazabicyclo[3.2.1]octan-8-yl)methanone]	652 nM	1640 nM	5730 nM	333 nM
CC(C)C(=O)N1C2CCC1CN(c1ncnn3cc(-c4cnn(C(F)F)c4)cc13)C2 [Example 42, 1-(3-(6-(1-(difluoromethyl)-1H-pyrazol-4-yl)pyrrolo[2,1-f][1,2,4]triazin-4-yl)-3,8-diazabicyclo[3.2.1]octan-8-yl)-2-methylpropan-1-one]	5220 nM	9510 nM	7960 nM	466 nM
Cn1cc(-c2cc3c(N4CC5CCC(C4)N5C(=O)CC(F)(F)F)ncnn3c2)cn1 [Example 59, 3,3,3-trifluoro-1-(3-(6-(1-methyl-1H-pyrazol-4-yl)pyrrolo[2,1-f][1,2,4]triazin-4-yl)-3,8-diazabicyclo[3.2.1]octan-8-yl)propan-1-one]	3500 nM	6940 nM	9730 nM	652 nM
Cn1cc(-c2cc3c(N4CC5CCC(C4)N5C(=O)CC#N)ccnn3c2)cn1 [Example 23, 3-(3-(6-(1-methyl-1H-pyrazol-4-yl)pyrrolo[1,2-b]pyridazin-4-yl)-3,8-diazabicyclo[3.2.1]octan-8-yl)-3-oxopropanenitrile]	137 nM	346 nM	117 nM	9.8 nM
Cn1cc(-c2cn3nccc(N4CC5CCC(C4)N5C(=O)[C@@H]4C[C@H]4F)c3n2)cn1 [Example 252, ((1S,2R)-2-fluorocyclopropyl)(3-(2-(1-methyl-1H-pyrazol-4-yl)imidazo[1,2-b]pyridazin-8-yl)-3,8-diazabicyclo[3.2.1]octan-8-yl)methanone]	28 nM	269 nM	28 nM	4 nM
COc1nn(C)cc1-c1cc2c(N3CC4CCC(C3)N4C(=O)[C@@H]3C[C@H]3F)ncnn2c1 [Example 98, ((1S,2R)-2-fluorocyclopropyl)(3-(6-(3-methoxy-1-methyl-1H-pyrazol-4-yl)pyrrolo[2,1-f][1,2,4]triazin-4-yl)-3,8-diazabicyclo[3.2.1]octan-8-yl)methanone]	672 nM	1640 nM	216 nM	9.8 nM
O=C([C@@H]1C[C@H]1F)N1C2CCC1CN(c1ccnc3[nH]c(C4CC4)nc13)C2 [Example 208, (3-(2-cyclopropyl-3H-imidazo[4,5-b]pyridin-7-yl)-3,8-diazabicyclo[3.2.1]octan-8-yl)((1S,2R)-2-fluorocyclopropyl)methanone]	716 nM	6420 nM	772 nM	85.4 nM
Cn1ccc(-c2cc3c(N4CC5CCC(C4)N5C(=O)[C@@H]4C[C@H]4F)ccnn3c2)cc1=O [Example 171]	136 nM	322 nM	28 nM	1.5 nM
CCn1ncc(-c2cc3c(N4CC5CCC(C4)N5C(=O)C4CC4)ncnn3c2)c1F [Example 161]	492 nM	1230 nM	2460 nM	120 nM
O=C(C1CCC1F)N1C2CCC1CN(c1ncnn3cc(-c4cnn(C(F)F)c4)cc13)C2 (centres unmarked) [Example 9, (3-(6-(1-(difluoromethyl)-1H-pyrazol-4-yl)pyrrolo[2,1-f][1,2,4]triazin-4-yl)-3,8-diazabicyclo[3.2.1]octan-8-yl)(2-fluorocyclobutyl)methanone]	3080 nM	5780 nM	5700 nM	202 nM
N#Cc1cc(-c2cc3c(N4CC5CCC(C4)N5C(=O)[C@@H]4C[C@H]4F)ncnn3c2)ccn1 [Example 95, 4-(4-(8-((1S,2R)-2-fluorocyclopropane-1-carbonyl)-3,8-diazabicyclo[3.2.1]octan-3-yl)pyrrolo[2,1-f][1,2,4]triazin-6-yl)picolinonitrile]	741 nM	7940 nM	942 nM	45.5 nM

Reference: patent publication US20240360157A1, “TYK2 INHIBITORS” (BIOGEN MA INC., priority 2021, published 2024)
